Data from patent US10272110B2, “Methods for promoting HSC engraftment” (CHILDREN'S MEDICAL CENTER CORPORATION, priority 2006, dated 2019).
Entries after “also recorded” stand apart in the source; their conditions may differ.

Legend:
vasculature (flk1) = settings: zebrafish embryos, 36 hpf
Experimental: Wild-type age-matched embryos were arrayed into 48-well plates (˜5 embryos/well) of individual test compounds and exposed from 3-somites until 36 hpf. Three compound libraries were utilized: NINDS Custom Collection (1040), SpecPlus Collection (960) and BIOMOL ICCB Known Bioactives (480). […] In situ hybridization for runx1 and cmyb was performed to assess HSCs. Compounds were retested at 10 μM, 20 μM, and 50 μM. Stem cell specificity was assessed using flk1 at 36 hpf. PGE2, PGI2, dmPGE2 and all cox inhibitors (Sigma) were used at 10 μM to 20 μM.

repopulating HSCs = test: Limiting dilution competitive transplantation; assay type: in vivo, mouse
Text: Zhang & Lodish, 103 Blood 2513-21 (2004). WBM (CD45.1) exposed to dmPGE2 ex vivo was mixed independently at varying doses with a fixed number of untreated competitor cells (CD45.1/CD45.2) and injected into congenic recipient mice (CD45.2). Peripheral blood was obtained at six, twelve, and twenty-four weeks post-transplantation and examined by FACS to determine the contribution of treated-test cells to hematopoietic repopulation (FIGS. 9E-9J). Positive reconstitution was defined as test cell multilineage chimerism >5% (FIGS. 9F, H, I). […] At six weeks, the calculated frequency of engrafting cells per 10^6 WBM cells was enhanced 3.3-fold (p=0.005) in the recipients of dmPGE2-treated WBM, and the frequency of short-term repopulating HSCs was 4-fold (p=0.002) higher at twelve weeks post-transplant (FIG. 8E, 8F, FIG. 9G). At twenty-four weeks, the frequency of long-term repopulating HSCs was 2.3-fold enhanced (p=0.05) in recipients of dmPGE2-treated cells (FIG. 8F, FIG. 9J). […] No decline in the contribution of dmPGE2-treated HSCs to hematopoiesis was observed.
WBM from CD45.1 C57Bl/6 mice was incubated with dmPGE2 or EtOH control ex vivo as described. Treated-test cells were independently transplanted into irradiated CD45.2 recipients (n=5/variable×2) with untreated CD45.1/CD45.2 competitor at the following ratios: 15,000:200,000 (0.075:1), 50,000:200,000 (0.25:1), 200,000:200,000 (1:1), 2,000,000:200,000 (10:1). Peripheral blood (PB) was obtained at six, twelve, and twenty-four weeks post-transplantation, and white blood cells were FACS-analyzed to determine test reconstitution for each series of treatment populations. Frequency of PB chimerism >5% was used to calculate the number of repopulating cells using the L-Calc program (Stem Cell Technologies). For twelve-week and twenty-four-week PB samples, multilineage reconstitution was measured by FACS analysis as above.

runx1/cmyb+ AGM HSCs = test: Heat shock wnt-pathway transgenic embryos treated with PG drugs: AGM HSC formation; assay type: in vivo, zebrafish
Experimental: More specifically, Wnt signaling through its main transcriptional mediator β-catenin plays an important role in controlling tissue patterning, cell fate decisions, and proliferation in many embryonic contexts, including the development and differentiation of organs. […] Whether wnt signaling has a role during HSC formation in zebrafish was determined using heat shock inducible activators and repressors of the wnt pathway. Briefly, wnt-inducible embryos were harvested and heat shocked for twenty minutes at 38° C. Genotypes were sorted by GFP expression, and the AGM HSCs analyzed by runx1/cmyb expression in situ. […] This is the first evidence in any organism that wnt signaling is required for AGM HSC formation.
Additionally, indomethacin and dmPGE2 was used to investigate the interaction of the wnt and prostaglandin pathways during HSC development and in marrow recovery following injury. FIG. 13 reflects the potential points of interaction of the PG and wnt pathways. […] Furthermore, dmPGE2 can rescue the inhibitory effects of dkk activation on AGM HSC formation at 36 hpf, as shown by in situ hybridization for runx1/cmyb.

AGM HSCs = test: Rescue of AGM HSCs in the mindbomb mutant; assay type: in vivo, zebrafish; settings: preliminary studies
Text: The mutant mindbomb lacks an E3 ubiquitin ligase for delta, the ligand of notch receptors. As such, mindbomb mutants completely lack notch signaling, and fail to make any hematopoietic stem cells in the AGM. Itoh et al., 4 Devel. Cell 67-82 (2003). Overexpression of runx1 rescues the number of c−myb positive cells in the AGM in mindbomb. This implies that runx is an important target of notch. […] This may be due to a defect in the ability of the cells to respond to prostaglandin E2; notch signaling is likely to be required earlier in the development of the AGM region than prostaglandin E2. Dose response curves with prostaglandin E2 in the mindbomb mutant may shed light on this. Conversely, Notch ICD embryos that have increased stem cell number by 36 hpf may be incubated with Cox inhibitors to see if prostaglandin signaling has a role in mediating AGM HSC upregulation. Other hematopoietic mutants may be studied similarly.

[1] = system: kidney marrow (KM) hematopoietic lineages; test: Kidney marrow irradiation recovery assay in adult zebrafish; settings: 50 μM vs DMSO, sublethally irradiated adult zebrafish
Text: Wild-type fish were sublethally irradiated, exposed to dmPGE2, and evaluated for kinetics of KM recovery by FACS 11 (FIG. 4A).
Adult zebrafish were exposed to 23 Gy of γ-irradiation. […] Whole KM isolated on days 0, 2, 4, 7, 10, 14 was subjected to FSC/SSC FACS analysis to identify hematopoietic lineages (n=5/treatment×3 replicates).

CCCCC(C)(C)[C@H](O)/C=C/[C@H]1[C@H](O)CC(=O)[C@@H]1C/C=C\CCCC(=O)O [dmPGE2, 16,16-dimethyl-PGE2]
effect on vasculature / flk1 staining (in words) (vasculature (flk1)): minimal effects on the vasculature
Mean % CD45.1 chimerism (±SD) (repopulating HSCs; 6 wk, test cell dose 15000, competitor 200000): 16.9 ± 19.5%
Animals with >5% CD45.1 (repopulating HSCs; 6 wk, test cell dose 15000, competitor 200000, 10 analyzed): 7
Mean % CD45.1 chimerism (±SD) (repopulating HSCs; 6 wk, test cell dose 50000, competitor 200000): 22.7 ± 24.2%
Animals with >5% CD45.1 (repopulating HSCs; 6 wk, test cell dose 50000, competitor 200000, 10 analyzed): 8
Mean % CD45.1 chimerism (±SD) (repopulating HSCs; 6 wk, test cell dose 200000, competitor 200000): 41.9 ± 17.2%
Animals with >5% CD45.1 (repopulating HSCs; 6 wk, test cell dose 200000, competitor 200000, 10 analyzed): 10
Mean % CD45.1 chimerism (±SD) (repopulating HSCs; 6 wk, test cell dose 2000000, competitor 200000): 85.1 ± 3.1%
Animals with >5% CD45.1 (repopulating HSCs; 6 wk, test cell dose 2000000, competitor 200000, 10 analyzed): 10
Mean % CD45.1 chimerism (±SD) (repopulating HSCs; 12 wk, test cell dose 15000, competitor 200000): 15.1 ± 22.2%
Animals with >5% CD45.1 (repopulating HSCs; 12 wk, test cell dose 15000, competitor 200000, 10 analyzed): 5
Mean % CD45.1 chimerism (±SD) (repopulating HSCs; 12 wk, test cell dose 50000, competitor 200000): 18.1 ± 22.2%
Animals with >5% CD45.1 (repopulating HSCs; 12 wk, test cell dose 50000, competitor 200000, 10 analyzed): 8
Mean % CD45.1 chimerism (±SD) (repopulating HSCs; 12 wk, test cell dose 200000, competitor 200000): 40.8 ± 28.7%
Animals with >5% CD45.1 (repopulating HSCs; 12 wk, test cell dose 200000, competitor 200000, 10 analyzed): 10
Mean % CD45.1 chimerism (±SD) (repopulating HSCs; 12 wk, test cell dose 2000000, competitor 200000): 87.8 ± 4.0%
Animals with >5% CD45.1 (repopulating HSCs; 12 wk, test cell dose 2000000, competitor 200000, 10 analyzed): 10
Mean % CD45.1 chimerism (±SD) (repopulating HSCs; 24 wk, test cell dose 15000, competitor 200000): 10.2 ± 10.3%
Animals with >5% CD45.1 (repopulating HSCs; 24 wk, test cell dose 15000, competitor 200000, 9 analyzed): 4
Mean % CD45.1 chimerism (±SD) (repopulating HSCs; 24 wk, test cell dose 50000, competitor 200000): 14.3 ± 16.6%
Animals with >5% CD45.1 (repopulating HSCs; 24 wk, test cell dose 50000, competitor 200000, 10 analyzed): 7
Mean % CD45.1 chimerism (±SD) (repopulating HSCs; 24 wk, test cell dose 200000, competitor 200000): 39.1 ± 31.0%
Animals with >5% CD45.1 (repopulating HSCs; 24 wk, test cell dose 200000, competitor 200000, 10 analyzed): 10
Mean % CD45.1 chimerism (±SD) (repopulating HSCs; 24 wk, test cell dose 2000000, competitor 200000): 90.7 ± 4.0%
Animals with >5% CD45.1 (repopulating HSCs; 24 wk, test cell dose 2000000, competitor 200000, 10 analyzed): 10
calculated frequency of engrafting cells per 10^6 WBM cells, enhancement vs control (repopulating HSCs; six weeks post-transplant, Poisson statistics): 3.3 fold
frequency of short-term repopulating HSCs, higher vs control (repopulating HSCs; twelve weeks post-transplant, Poisson statistics): 4 fold
lineage character of reconstitution in recipients (repopulating HSCs; twelve- and twenty-four-week analyses): multilineage
frequency of long-term repopulating HSCs, enhancement vs control (repopulating HSCs; twenty-four weeks post-transplant, Poisson statistics): 2.3 fold
contribution of treated HSCs to hematopoiesis over time (repopulating HSCs; up to twenty-four weeks): No decline
rescue of inhibited AGM HSC formation under wnt repression (dkk activation) (runx1/cmyb+ AGM HSCs; 36 hpf, runx1/cmyb in situ hybridization): partially rescued; also recorded: can rescue
rescue of HSC formation in embryos over-expressing dnTCF (runx1/cmyb+ AGM HSCs; preliminary results): not sufficient
rescue of the mindbomb mutant (AGM HSCs): failed to demonstrate any type of rescue
rate of hematopoietic reconstitution of the KM [1]: significantly enhanced
